Assay results from PubChem BioAssay (NCI).
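Cells were grown in 96-well plates and exposed to each compound for 48 hours at five concentrations; endpoints were interpolated linearly between bracketing concentrations, or set to the highest concentration if not reached. TGI is the concentration that stops growth completely.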

Columns and labels:
Assay in all cases: NCI anticancer screen, dose series, 48 h
786-0 renal = system: 786-0 renal
A549 NSCLC = system: A549 NSCLC
ACHN renal = system: ACHN renal
CAKI-1 renal = system: CAKI-1 renal
CCRF-CEM leukemia = system: CCRF-CEM leukemia
COLO 205 colon = system: COLO 205 colon
DLD-1 colon = system: DLD-1 colon
DMS 114 small cell lung = system: DMS 114 small cell lung
DMS 273 small cell lung = system: DMS 273 small cell lung
HCC-2998 colon = system: HCC-2998 colon
HCT-116 colon = system: HCT-116 colon
HCT-15 colon = system: HCT-15 colon
HL-60(TB) leukemia = system: HL-60(TB) leukemia
HOP-62 NSCLC = system: HOP-62 NSCLC
HOP-92 NSCLC = system: HOP-92 NSCLC
HT29 colon = system: HT29 colon
IGROV1 ovarian = system: IGROV1 ovarian
K-562 leukemia = system: K-562 leukemia
KM12 colon = system: KM12 colon
KM20L2 colon = system: KM20L2 colon
LXFL 529 NSCLC = system: LXFL 529 NSCLC
M14 melanoma = system: M14 melanoma
M19-MEL melanoma = system: M19-MEL melanoma
MALME-3M melanoma = system: MALME-3M melanoma
MOLT-4 leukemia = system: MOLT-4 leukemia
NCI-H226 lung = system: NCI-H226 lung
NCI-H23 lung = system: NCI-H23 lung
NCI-H460 lung = system: NCI-H460 lung
NCI-H522 lung = system: NCI-H522 lung
OVCAR-3 ovarian = system: OVCAR-3 ovarian
OVCAR-4 ovarian = system: OVCAR-4 ovarian
OVCAR-5 ovarian = system: OVCAR-5 ovarian
OVCAR-8 ovarian = system: OVCAR-8 ovarian
RPMI-8226 leukemia = system: RPMI-8226 leukemia
SF-268 CNS = system: SF-268 CNS
SF-295 CNS = system: SF-295 CNS
SF-539 CNS = system: SF-539 CNS
SK-MEL-2 melanoma = system: SK-MEL-2 melanoma
SK-MEL-28 melanoma = system: SK-MEL-28 melanoma
SK-MEL-5 melanoma = system: SK-MEL-5 melanoma
SNB-19 CNS = system: SNB-19 CNS
SNB-75 CNS = system: SNB-75 CNS
SR leukemia = system: SR leukemia
SW-620 colon = system: SW-620 colon
U251 CNS = system: U251 CNS
UACC-257 melanoma = system: UACC-257 melanoma
UACC-62 melanoma = system: UACC-62 melanoma
UO-31 renal = system: UO-31 renal
A498 renal = system: A498 renal
BT-549 breast = system: BT-549 breast
DU-145 prostate = system: DU-145 prostate
EKVX NSCLC = system: EKVX NSCLC
HS 578T breast = system: HS 578T breast
LOX IMVI melanoma = system: LOX IMVI melanoma
MCF7 breast = system: MCF7 breast
MDA-MB-231 breast = system: MDA-MB-231 breast
MDA-MB-435 = system: MDA-MB-435
MDA-N = system: MDA-N
NCI/ADR-RES ovarian = system: NCI/ADR-RES ovarian
PC-3 prostate = system: PC-3 prostate
RXF 393 renal = system: RXF 393 renal
SK-OV-3 ovarian = system: SK-OV-3 ovarian
SN12C renal = system: SN12C renal
T-47D breast = system: T-47D breast
TK-10 renal = system: TK-10 renal

For O=[N+]([O-])/C=C/c1ccc(Cl)cc1Cl, the TGI (786-0 renal) was 42.2 µM, the TGI (A549 NSCLC) was 48.5 µM and the TGI (ACHN renal) was 34.3 µM. For the same compound, the TGI (CAKI-1 renal) was 29.8 µM, the TGI (CCRF-CEM leukemia) was 20.8 µM and the TGI (COLO 205 colon) was 38.9 µM. For the same compound, the TGI (DLD-1 colon) was 84.4 µM, the TGI (DMS 114 small cell lung) was 35.8 µM and the TGI (DMS 273 small cell lung) was 29.7 µM. The TGI (HCC-2998 colon) was 29 µM, the TGI (HCT-116 colon) was 13 µM and the TGI (HCT-15 colon) was 46.4 µM. The TGI (HL-60(TB) leukemia) was 25.3 µM, the TGI (HOP-62 NSCLC) was 28.6 µM and the TGI (HOP-92 NSCLC) was 31 µM. For the same compound, the TGI (HT29 colon) was 21.8 µM, the TGI (IGROV1 ovarian) was 29.4 µM and the TGI (K-562 leukemia) was 9.94 µM. For the same compound, the TGI (KM12 colon) was 29.6 µM, the TGI (KM20L2 colon) was 42.1 µM and the TGI (LXFL 529 NSCLC) was 27.1 µM. For the same compound, the TGI (M14 melanoma) was 24.4 µM, the TGI (M19-MEL melanoma) was 19.5 µM and the TGI (MALME-3M melanoma) was 32.6 µM. The TGI (MOLT-4 leukemia) was 45.7 µM, the TGI (NCI-H226 lung) was 32.2 µM and the TGI (NCI-H23 lung) was 42.9 µM. For the same compound, the TGI (NCI-H460 lung) was 37.4 µM, the TGI (NCI-H522 lung) was 29.8 µM and the TGI (OVCAR-3 ovarian) was 53.6 µM. For the same compound, the TGI (OVCAR-4 ovarian) was 34.8 µM, the TGI (OVCAR-5 ovarian) was 46.3 µM and the TGI (OVCAR-8 ovarian) was 67.7 µM. For the same compound, the TGI (RPMI-8226 leukemia) was 5.66 µM, the TGI (SF-268 CNS) was 44.5 µM and the TGI (SF-295 CNS) was 32 µM. For the same compound, the TGI (SF-539 CNS) was 33 µM, the TGI (SK-MEL-2 melanoma) was 40.2 µM and the TGI (SK-MEL-28 melanoma) was 30.3 µM. For the same compound, the TGI (SK-MEL-5 melanoma) was 29.4 µM, the TGI (SNB-19 CNS) was 32.4 µM and the TGI (SNB-75 CNS) was 34.8 µM. For the same compound, the TGI (SR leukemia) was 47 µM, the TGI (SW-620 colon) was 37.5 µM and the TGI (U251 CNS) was 20.5 µM. For the same compound, the TGI (UACC-257 melanoma) was 27.4 µM, the TGI (UACC-62 melanoma) was 31.3 µM and the TGI (UO-31 renal) was 29.8 µM.

Work on CN(C)c1nc(N)c(C#N)c(C#N)c1C#N yielded a TGI (786-0 renal) greater than 10 µM, a TGI (A498 renal) greater than 10 µM and a TGI (A549 NSCLC) greater than 10 µM. It also gave a TGI (ACHN renal) greater than 10 µM, a TGI (BT-549 breast) greater than 10 µM and a TGI (CAKI-1 renal) greater than 10 µM. For the same compound, the TGI (CCRF-CEM leukemia) was greater than 10 µM, the TGI (COLO 205 colon) was greater than 10 µM and the TGI (DU-145 prostate) was greater than 10 µM. It also gave a TGI (EKVX NSCLC) greater than 10 µM, a TGI (HCC-2998 colon) greater than 10 µM and a TGI (HCT-116 colon) greater than 10 µM. For the same compound, the TGI (HCT-15 colon) was greater than 10 µM, the TGI (HL-60(TB) leukemia) was greater than 6.07 µM and the TGI (HOP-62 NSCLC) was greater than 10 µM. For the same compound, the TGI (HOP-92 NSCLC) was greater than 10 µM, the TGI (HS 578T breast) was greater than 10 µM and the TGI (HT29 colon) was greater than 10 µM. It also gave a TGI (IGROV1 ovarian) greater than 10 µM, a TGI (K-562 leukemia) greater than 7.15 µM and a TGI (KM12 colon) greater than 10 µM. It also gave a TGI (LOX IMVI melanoma) greater than 10 µM, a TGI (M14 melanoma) greater than 10 µM and a TGI (MALME-3M melanoma) greater than 10 µM. The TGI (MCF7 breast) was greater than 10 µM, the TGI (MDA-MB-231 breast) was greater than 10 µM and the TGI (MDA-MB-435) was greater than 10 µM. The TGI (MDA-N) was greater than 10 µM, the TGI (MOLT-4 leukemia) was greater than 10 µM and the TGI (NCI-H226 lung) was greater than 10 µM. The TGI (NCI-H23 lung) was greater than 10 µM, the TGI (NCI-H460 lung) was greater than 10 µM and the TGI (NCI-H522 lung) was 3.8 µM. The TGI (NCI/ADR-RES ovarian) was greater than 10 µM, the TGI (OVCAR-3 ovarian) was greater than 10 µM and the TGI (OVCAR-4 ovarian) was greater than 10 µM. It also gave a TGI (OVCAR-5 ovarian) greater than 10 µM, a TGI (OVCAR-8 ovarian) greater than 10 µM and a TGI (PC-3 prostate) greater than 10 µM. It also gave a TGI (RPMI-8226 leukemia) greater than 10 µM, a TGI (RXF 393 renal) greater than 10 µM and a TGI (SF-268 CNS) greater than 10 µM. The TGI (SF-295 CNS) was greater than 10 µM, the TGI (SF-539 CNS) was greater than 10 µM and the TGI (SK-MEL-2 melanoma) was greater than 10 µM. The TGI (SK-MEL-28 melanoma) was greater than 10 µM, the TGI (SK-MEL-5 melanoma) was greater than 10 µM and the TGI (SK-OV-3 ovarian) was greater than 10 µM. It also gave a TGI (SN12C renal) greater than 10 µM, a TGI (SNB-19 CNS) greater than 10 µM and a TGI (SNB-75 CNS) greater than 10 µM. For the same compound, the TGI (SR leukemia) was greater than 10 µM, the TGI (SW-620 colon) was greater than 10 µM and the TGI (T-47D breast) was greater than 10 µM. For the same compound, the TGI (TK-10 renal) was greater than 10 µM, the TGI (U251 CNS) was greater than 10 µM and the TGI (UACC-257 melanoma) was greater than 10 µM. For the same compound, the TGI (UACC-62 melanoma) was greater than 10 µM and the TGI (UO-31 renal) was greater than 10 µM.

OC1COC(OCc2ccccc2)C(O)C1O (stereo not given) was tested, and the TGI (786-0 renal) was greater than 100 µM, the TGI (A498 renal) was greater than 100 µM and the TGI (A549 NSCLC) was greater than 100 µM. It also gave a TGI (ACHN renal) greater than 100 µM, a TGI (BT-549 breast) greater than 100 µM and a TGI (CAKI-1 renal) greater than 100 µM. For the same compound, the TGI (CCRF-CEM leukemia) was greater than 100 µM, the TGI (COLO 205 colon) was greater than 100 µM and the TGI (DU-145 prostate) was greater than 100 µM. The TGI (EKVX NSCLC) was greater than 100 µM, the TGI (HCC-2998 colon) was greater than 100 µM and the TGI (HCT-116 colon) was greater than 100 µM. For the same compound, the TGI (HCT-15 colon) was greater than 100 µM, the TGI (HL-60(TB) leukemia) was greater than 100 µM and the TGI (HOP-62 NSCLC) was greater than 100 µM. For the same compound, the TGI (HOP-92 NSCLC) was greater than 100 µM, the TGI (HS 578T breast) was greater than 100 µM and the TGI (HT29 colon) was greater than 100 µM. It also gave a TGI (IGROV1 ovarian) greater than 100 µM, a TGI (K-562 leukemia) greater than 100 µM and a TGI (KM12 colon) greater than 100 µM. It also gave a TGI (LOX IMVI melanoma) greater than 100 µM, a TGI (M14 melanoma) greater than 100 µM and a TGI (MALME-3M melanoma) greater than 100 µM. For the same compound, the TGI (MCF7 breast) was greater than 100 µM, the TGI (MDA-MB-231 breast) was greater than 100 µM and the TGI (MDA-MB-435) was greater than 100 µM. For the same compound, the TGI (MDA-N) was greater than 100 µM, the TGI (MOLT-4 leukemia) was greater than 100 µM and the TGI (NCI-H226 lung) was greater than 100 µM. It also gave a TGI (NCI-H23 lung) greater than 100 µM, a TGI (NCI-H460 lung) greater than 100 µM and a TGI (NCI-H522 lung) greater than 100 µM. It also gave a TGI (NCI/ADR-RES ovarian) greater than 100 µM, a TGI (OVCAR-3 ovarian) greater than 100 µM and a TGI (OVCAR-4 ovarian) greater than 100 µM. It also gave a TGI (OVCAR-5 ovarian) greater than 100 µM, a TGI (OVCAR-8 ovarian) greater than 100 µM and a TGI (PC-3 prostate) greater than 100 µM. The TGI (RPMI-8226 leukemia) was greater than 100 µM, the TGI (RXF 393 renal) was greater than 100 µM and the TGI (SF-268 CNS) was greater than 100 µM. For the same compound, the TGI (SF-295 CNS) was greater than 100 µM, the TGI (SF-539 CNS) was greater than 100 µM and the TGI (SK-MEL-2 melanoma) was greater than 100 µM. It also gave a TGI (SK-MEL-28 melanoma) greater than 100 µM, a TGI (SK-MEL-5 melanoma) greater than 100 µM and a TGI (SK-OV-3 ovarian) greater than 100 µM. The TGI (SN12C renal) was greater than 100 µM, the TGI (SNB-19 CNS) was greater than 100 µM and the TGI (SR leukemia) was greater than 100 µM. The TGI (SW-620 colon) was greater than 100 µM, the TGI (T-47D breast) was greater than 100 µM and the TGI (TK-10 renal) was greater than 100 µM. It also gave a TGI (U251 CNS) greater than 100 µM, a TGI (UACC-257 melanoma) greater than 100 µM and a TGI (UACC-62 melanoma) greater than 100 µM. It also gave a TGI (UO-31 renal) greater than 100 µM.
